Measurements from patent US5272178A, “Compounds of cyclic phenolic thioethers which are useful in stimulating and inhibiting superoxide generation” (G. D. Searle & Co., priority 1993, dated 1993).
One block for each compound: values may come before it.

Key:
[1] = biological target: T1, 5-lipoxygenase (Rattus norvegicus, UniProt P12527); test: Inhibition of 5-lipoxygenase, in vitro (5-HETE synthesis, RBL-1 100,000 x g supernatant); format: biochemical; details: for activation at 100 µM / activation at 10 µM: stimulation, read-out: 5-Lipoxygenase, Stimulated %
T1 construct: The 100,000 x g supernatant fraction of Rat Basophilic Leukemia Cell Homogenate (RBL-1); endogenous in cells; host or cells: RBL-1 (rat basophilic leukemia) cells, 100,000 x g supernatant of homogenate
T1 sequence (P12527 1-673): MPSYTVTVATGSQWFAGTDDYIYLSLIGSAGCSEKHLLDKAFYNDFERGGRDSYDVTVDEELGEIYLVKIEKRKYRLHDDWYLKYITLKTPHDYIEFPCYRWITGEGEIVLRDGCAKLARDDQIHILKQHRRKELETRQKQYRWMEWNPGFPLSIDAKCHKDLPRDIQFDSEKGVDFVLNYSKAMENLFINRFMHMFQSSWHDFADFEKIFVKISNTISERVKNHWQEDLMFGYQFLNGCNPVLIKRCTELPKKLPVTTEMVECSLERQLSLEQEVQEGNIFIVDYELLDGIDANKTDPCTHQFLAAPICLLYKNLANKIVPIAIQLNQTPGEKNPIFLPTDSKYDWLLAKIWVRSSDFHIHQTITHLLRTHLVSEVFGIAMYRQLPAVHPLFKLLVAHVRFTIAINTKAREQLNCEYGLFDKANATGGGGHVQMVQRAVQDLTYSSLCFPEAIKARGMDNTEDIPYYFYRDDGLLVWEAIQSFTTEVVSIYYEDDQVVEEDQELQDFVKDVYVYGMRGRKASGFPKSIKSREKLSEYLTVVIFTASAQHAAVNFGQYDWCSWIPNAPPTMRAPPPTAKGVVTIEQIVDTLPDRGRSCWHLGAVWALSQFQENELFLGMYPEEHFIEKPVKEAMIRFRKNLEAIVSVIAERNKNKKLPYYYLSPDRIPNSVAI
Procedure: The compounds of the invention are evaluated with respect to 5-lipoxygenaseinhibition according to the following assay procedure.
Inhibition of 5-lipoxygenase, in vitro: anti-inflammatory, anti-allergy activities.
The 100,000 x g supernatant fraction of Rat Basophilic Leukemia Cell Homogenate (RBL-1) serves as a 5-lipoxygenase enzyme source. The enzyme is incubated with [1-^14 C)-arachidonic acid and Ca++ in the presence and absence of test compound. The product of 5-lipoxygenase, 5-hydroxyeicosatetraenoic acid (5-HETE), is separated by thin-layer chromatography an measured by radioactivity. A compound inhibiting 5-HETE synthesis by 30% or more is considered active at that concentration.
For comparison the compound of Formula XX, a known 5-lipoxygenase inhibitor described in U.S. Pat. No. 4,755,524 was used. [drawing 13]

[2] = system: human neutrophils; test: Human neutrophil superoxide generation (FMLP-stimulated, cytochrome C reduction); format: cell-based; details: for IC50: read-out: FMLP Induced Superoxide Generation, Inhibition IC50
Procedure: The compounds of the invention are evaluated with respect to superoxide modulating activity according to the following assay procedure:
Human neutrophil superoxide generation: Superoxide generation by formyl-methionyl-leucyl-phenylalanine (FMLP)-stimulated neutrophils was quantitated by the reduction of cytochrome C (Badwey, J. A., Curnutte, J. T. and Karnovsky, M. L., cis-Polyunsaturated fatty acids induce high levels of superoxide production by human neutrophils. J. Biol. Chem. 256: 12640-12643, 1981.) To 5 million neutrophils in 2.85 ml of Krebs-Ringer phosphate buffer, pH 7.2, 50 ul of inhibitor (in 10% DMSO/buffer), and 50 ul ferricytochrome C (5 mM, stock) were added and preincubated for 3 minutes at 37° C. Absorption measurements at 550 nm were recorded at start of preincubation. Fifty ul FMLP (6 uM, stock) was added to initiate reaction. A plateau was reached within 3 minutes and this reading minus the initial reading (before addition of FMLP) was used to calculate nanomoles of superoxide generated based on a molar extinction coefficient of 2.1×10^4 cm^-1 mole^-1.
Isolation of human neutrophils: Human neutrophils were isolated from freshly drawn blood of healthy donors. Two ml of 5% dextran (MW 200,000-300,000) in saline was added to 10 ml aliquots of blood, mixed and placed upright for 45 min. at 37° C. Approx. 8-10 ml of the plasma-white cell suspension from the dextran sedimentation was layered on 3 ml of Ficol-paque in a 15 ml tube and centrifuged at 400 g for 30 min. The supernate, containing plasma and platelets, was discarded by aspiration, and the pellet, containing predominantly neutrophils, was resuspended in 1 ml saline. The suspension was transferred to a clean tube, and pooled with other aliquots of blood treated similarly. The pooled suspension was centrifuged at 350 g for 5 min. and supernate discarded. The pellet was resuspended in 5 ml of 0.05% NaCl with a plastic Pasteur pipette for 25 seconds to lyse contaminating red cells, then 5 ml of 1.75% NaCl added to regain isotonicity. The red cell lysing procedure was repeated, the cells suspended in appropriate buffer (depending on assay) and counted.

[3] = biological target: T2, Sheep Seminal Vesicle Microsome Cyclooxygenase (Ovis aries, UniProt P05979); test: Inhibition of Sheep Seminal Vesicle Microsome Cyclooxygenase; format: biochemical
T2 construct: Lyophilized ovine microsome (approx. 1 mg) suspended in 2.9 ml Tris-HCl buffer, pH 8.2, containing 0.7 mM phenol were used as source; from tissue; host or cells: sheep seminal vesicle microsomes (lyophilized)
T2 sequence (P05979 25-600): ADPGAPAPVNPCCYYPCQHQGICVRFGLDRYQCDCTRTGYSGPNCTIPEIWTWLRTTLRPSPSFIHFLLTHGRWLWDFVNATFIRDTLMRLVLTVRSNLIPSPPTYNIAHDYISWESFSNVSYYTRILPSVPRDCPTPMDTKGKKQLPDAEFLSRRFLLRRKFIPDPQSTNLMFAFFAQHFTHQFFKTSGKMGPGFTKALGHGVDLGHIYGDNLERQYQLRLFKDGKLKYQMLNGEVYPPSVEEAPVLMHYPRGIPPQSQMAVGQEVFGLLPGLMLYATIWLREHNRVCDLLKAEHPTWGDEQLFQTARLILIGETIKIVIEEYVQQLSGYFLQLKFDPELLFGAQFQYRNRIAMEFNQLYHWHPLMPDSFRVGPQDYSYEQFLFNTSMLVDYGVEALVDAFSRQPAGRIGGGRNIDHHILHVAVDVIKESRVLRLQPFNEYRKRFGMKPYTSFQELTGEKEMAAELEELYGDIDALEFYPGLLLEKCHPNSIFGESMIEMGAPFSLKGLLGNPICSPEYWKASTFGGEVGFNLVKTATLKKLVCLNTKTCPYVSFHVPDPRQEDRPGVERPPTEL
Procedure: The compounds of the present invention evaluated with respect to cyclooxygenase inhibition according to the following assay procedure. Inhibition of Sheep Seminal Vesicle Microsome Cyclooxygenase The assay was based on oxygen consumption during conversion of arachidonic acid to prostaglandin G2 catalyzed by cyclooxygenase Biochem. 11:3276-3285 (1972). Lyophilized ovine microsome (approx. 1 mg) suspended in 2.9 ml Tris-HCl buffer, pH 8.2, containing 0.7 mM phenol were used as source of arachidonate cyclooxygenase. The inhibitor, 50 μl in DMSO, was added and the mixture preincubated for 5 minutes at 37° C. Fifty μl of arachidonic acid (final conc. 50 μM) was added to start the reaction. The slopes of the initial rates of oxygen uptake, in the presence and absence of inhibitor, were compared to determine reaction inhibition. Percent inhibition was computed using the following formula: [formula]

[4] = Homo sapiens, Neutrophil, % above control, read-out: FMLP Induced Superoxide Generation, Stimulation, % > control

- 5-lipoxygenase inhibition (statement in words) [1]: inhibited 5-lipoxygenase
- IC50 [1]: 100 µM
Compound: CN(CCc1ccccn1)C(=O)CS[C@@H]1CCCC[C@H]1Sc1cc(C(C)(C)C)cc(C(C)(C)C)c1 (relative stereo) [Example 16]
- superoxide generation (statement in words) [2]: stimulated superoxide generation
- activation at 10 µM [2, 4]: 33%
- activation at 25 µM ([2]; Homo sapiens, Neutrophil, 25 μM, % above control, read-out: FMLP Induced Superoxide Generation, Stimulation, % > control): 83%
- activation at 50 µM ([2]; Homo sapiens, Neutrophil, 50 μM, % above control, read-out: FMLP Induced Superoxide Generation, Stimulation, % > control): 100%

- IC50 [1]: > 100 µM
- IC50 ([2]; Homo sapiens, Neutrophil): 3.4 µM
Compound: CC(C)(C)c1cc(S[C@@H]2CCCC[C@H]2OCC(=O)O)cc(C(C)(C)C)c1 (relative stereo) [Example 17]

- IC50 ([2]; Homo sapiens, Neutrophil): 11 µM
Compound: C[C@H](Sc1cc(C(C)(C)C)c(O)c(C(C)(C)C)c1)[C@@H](C)OCC(=O)O (relative stereo) [Formula XX, reference compound]
- 5-lipoxygenase inhibition (statement in words) [1]: inhibited both superoxide generation and 5-lipoxygenase
- superoxide generation (statement in words) [2]: inhibited both superoxide generation and 5-lipoxygenase

Continued, compound first:

Compound: CC(C)(C)c1cc(S[C@@H]2CCCC[C@H]2SCC(=O)O)cc(C(C)(C)C)c1 (relative stereo) [Example 5, trans-[[2-[[3,5-bis(1,1-dimethylethyl)phenyl]thio]cyclohexyl]thio]acetic acid]
- IC50 [1]: 100 µM
- IC50 ([2]; Homo sapiens, Neutrophil): 1.1 µM

Compound: O=C(O)CS[C@@H]1CCCC[C@H]1Sc1ccccc1 (relative stereo) [Example 7]
- cyclooxygenase inhibition (statement in words) [3]: did not inhibit either 5-lipoxygenase or cyclooxygenase
- Cyclooxygenase Inhibition (in words) ([3]; at 100 μM): Inactive
- 5-lipoxygenase inhibition (statement in words) [1]: did not inhibit either 5-lipoxygenase or cyclooxygenase
- activation at 100 µM ([1]; at 10^-4 M): 45%
- activation at 10 µM ([1]; at 10^-5 M): 27%
- superoxide generation (statement in words) [2]: did inhibit superoxide generation
- IC50 ([2]; Homo sapiens, Neutrophil): 50 µM

Compound: COC(=O)CS[C@@H]1CCCC[C@H]1Sc1cc(C(C)(C)C)cc(C(C)(C)C)c1 (relative stereo) [Example 4]
- activation at 1 µM ([2]; Homo sapiens, Neutrophil, 1 μM, % above control, read-out: FMLP Induced Superoxide Generation, Stimulation, % > control): 67%
- activation at 10 µM [2, 4]: 133%
- activation at 100 µM ([2]; Homo sapiens, Neutrophil, 100 μM, % above control, read-out: FMLP Induced Superoxide Generation, Stimulation, % > control): 167%

Compound: CC(C)(C)c1cccc(S[C@@H]2CCCC[C@H]2SCC(=O)O)c1 (relative stereo) [Example 11]
- IC50 [3]: 2.9 µM
- activation at 100 µM ([1]; at 10^-4 M): 2.5%
- activation at 10 µM ([1]; at 10^-5 M): 3.2%
- IC50 ([2]; Homo sapiens, Neutrophil): 4.8 µM

Compound: O=C(O)CS[C@@H]1CCCC[C@H]1Sc1cccc(-c2ccccc2)c1 (relative stereo) [Example 15]
- IC50 [3]: 64 µM
- inhibition at 100 µM ([1]; at 10^-4 M, inhibition, read-out: 5-Lipoxygenase, Inhibited %): 21.3%
- inhibition at 10 µM ([1]; at 10^-5 M, inhibition, read-out: 5-Lipoxygenase, Inhibited %): 14.9%
- IC50 ([2]; Homo sapiens, Neutrophil): 2.8 µM
